In patent US11267800B2, “Cyclohexyl acid triazole azines as LPA antagonists” (BRISTOL-MYERS SQUIBB COMPANY, priority 2017, dated 2022):
pIC50: −log10 of the molar value.

These compounds were tested against T1, human LPA1 (Homo sapiens, UniProt Q92633) (assay: LPA1 functional antagonist assay (calcium flux)). Conditions: CHO cells overexpressing human LPA1; inhibition of calcium flux induced by 10 nM LPA; read-out: hLPA1 IC50.
T1 construct: expressed in transfected cells; host or cells: Chinese hamster ovary (CHO) cells
Assay type: cell-based
Outline: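 Dye-loaded CHO cells overexpressing human LPA1 (30 min, 37 °C) were preincubated 20 min at room temperature with compound (0.08 nM–5 μM; 0.5% DMSO; HBSS, 20 mM HEPES, 0.1% fatty-acid-free BSA), then stimulated with 10 nM LPA. IC50 is the concentration inhibiting 50% of LPA-induced calcium flux, from a 4-parameter logistic fit.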

T1 sequence (Q92633 whole entry): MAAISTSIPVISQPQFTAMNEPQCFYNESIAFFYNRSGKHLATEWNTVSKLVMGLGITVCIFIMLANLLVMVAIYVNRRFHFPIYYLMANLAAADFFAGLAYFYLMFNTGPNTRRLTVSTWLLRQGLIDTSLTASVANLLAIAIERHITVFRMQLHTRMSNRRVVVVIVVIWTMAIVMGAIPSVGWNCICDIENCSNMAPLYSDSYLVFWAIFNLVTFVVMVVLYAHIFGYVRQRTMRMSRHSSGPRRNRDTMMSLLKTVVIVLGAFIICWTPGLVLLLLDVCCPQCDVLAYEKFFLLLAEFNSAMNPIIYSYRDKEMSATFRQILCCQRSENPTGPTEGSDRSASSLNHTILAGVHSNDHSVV

SMILES	pIC50
Cc1nc(-c2nnn(C)c2Nc2nccc(C(C)C)n2)ccc1O[C@H]1CCC[C@H](C(=O)O)C1 [Example 241, (1S,3S)-3-((6-(5-((4-isopropyl-pyrimidin-2-yl)amino)-1-methyl-1H-1,2,3-triazol-4-yl)-2-methylpyridin-3-yl)oxy)cyclohexane-1-carboxylic acid]	7.18
CCCOc1cccc(Nc2c(-c3ccc(O[C@H]4CCC[C@H](C(=O)O)C4)c(C)n3)nnn2C)n1 [Example 242, (1S,3S)-3-((2-methyl-6-(1-methyl-5-((6-propoxypyridin-2-yl)amino)-1H-1,2,3-triazol-4-yl)pyridin-3-yl)oxy) cyclohexane-1-carboxylic acid]	7.96
Cn1nnc(-c2ccc(O[C@H]3CCC[C@H](C(=O)O)C3)cn2)c1Nc1nccc(OCC2CC2)n1 [Example 243, (1S,3S)-3-((6-(5-((4-(cyclopropyl-methoxy)pyrimidin-2-yl)amino)-1-methyl-1H-1,2,3-triazol-4-yl)pyridin-3-yl)oxy)cyclohexane-1-carboxylic acid]	6.91
CCCc1cccc(Nc2c(-c3ccc(O[C@H]4CCC[C@H](C(=O)O)C4)cn3)nnn2C)n1 [Example 244, (1S,3S)-3-((6-(1-methyl-5-((6-propylpyridin-2-yl)amino)-1H-1,2,3-triazol-4-yl)pyridin-3-yl)oxy) cyclohexane-1-carboxylic acid]	7.37
CCCCc1cccc(Nc2c(-c3ccc(O[C@H]4CCC[C@H](C(=O)O)C4)cn3)nnn2C)n1 [Example 245, (1S,3S)-3-((6-(5-((6-butylpyridin-2-yl)amino)-1-methyl-1H-1,2,3-triazol-4-yl)pyridin-3-yl)oxy)cyclohexane-1-carboxylic acid]	7.49
CCCOc1ccnc(Nc2c(-c3ccc(O[C@H]4CCC[C@H](C(=O)O)C4)cn3)nnn2C)n1 [Example 246, (1S,3S)-3-((6-(1-methyl-5-((4-propoxypyrimidin-2-yl)amino)-1H-1,2,3-triazol-4-yl)pyridin-3-yl)oxy) cyclohexane-1-carboxylic acid]	6.65
CCCc1ccnc(Nc2c(-c3ccc(O[C@H]4CCC[C@H](C(=O)O)C4)cn3)nnn2C)n1 [Example 247, (1S,3S)-3-((6-(1-methyl-5-((4-propylpyrimidin-2-yl)amino)-1H-1,2,3-triazol-4-yl)pyridin-3-yl)oxy) cyclohexane-1-carboxylic acid]	6.50
CCOc1cccc(Nc2c(-c3ccc(O[C@H]4CCC[C@H](C(=O)O)C4)cn3)nnn2C)n1 [Example 248, (1S,3S)-3-((6-(5-((6-ethoxypyridin-2-yl)amino)-1-methyl-1H-1,2,3-triazol-4-yl)pyridin-3-yl)oxy)cyclohexane-1-carboxylic acid]	6.95
Cc1nc(-c2nnn(C)c2COc2ncc(F)c(NC(C)C)n2)ccc1O[C@H]1CCC[C@H](C(=O)O)C1 [Example 252, (1S,3S)-3-((6-(5-(((5-fluoro-4-(isopropylamino)pyrimidin-2-yl)oxy)methyl)-1-methyl-1H-1,2,3-triazol-4-yl)-2-methylpyridin-3-yl)oxy)cyclohexane-1-carboxylic acid]	7.19
Cc1nc(-c2nnn(C)c2CN(C)c2nccc(OC3CC3)n2)ccc1O[C@H]1CCC[C@H](C(=O)O)C1 [Example 253, (1S,3S)-3-((6-(5-(((4-cyclopropoxypyrimidin-2-yl)(methyl)amino)methyl)-1-methyl-1H-1,2,3-triazol-4-yl)-2-methylpyridin-3-yl)oxy)cyclohexane-1-carboxylic acid]	7.55
Cc1nc(-c2nnn(C)c2COc2cccc(C(C)C)c2)ccc1O[C@H]1CCC[C@H](C(=O)O)C1 [Example 254, (1S,3S)-3-((6-(5-((3-isopropylphenoxy)methyl)-1-methyl-1H-1,2,3-triazol-4-yl)-2-methylpyridin-3-yl)oxy)cyclohexane-1-carboxylic acid]	8.23
Cc1nc(-c2nnn(C)c2COc2cc(OC(F)F)ncn2)ccc1O[C@H]1CCC[C@H](C(=O)O)C1 [Example 255, (1S,3S)-3-((6-(5-(((6-(difluoromethoxy)pyrimidin-4-yl)oxy)methyl)-1-methyl-1H-1,2,3-triazol-4-yl)-2-methylpyridin-3-yl)oxy)cyclohexane-1-carboxylicacid]	7.89
CCc1cc(OCc2c(-c3ccc(O[C@H]4CCC[C@H](C(=O)O)C4)c(C)n3)nnn2C)ncn1 [Example 256, (1S,3S)-3-((6-(5-(((6-ethylpyrimidin-4-yl)oxy)methyl)-1-methyl-1H-1,2,3-triazol-4-yl)-2-methylpyridin-3-yl)oxy)cyclohexane-1-carboxylic acid]	7.66
CCc1cc(OCc2c(-c3ccc(O[C@H]4CCC[C@H](c5nnn[nH]5)C4)c(C)n3)nnn2C)ncn1 [Example 257, 4-((4-(5-(((1S,3S)-3-(1H-tetrazol-5-yl)cyclohexyl)oxy)-6-methylpyridin-2-yl)-1-methyl-1H-1,2,3-triazol-5-yl)methoxy)-6-ethylpyrimidine]	7.16
[2H]C([2H])([2H])C([2H])([2H])Oc1nccc(NCc2c(-c3ccc(O[C@H]4CCC[C@H](C(=O)O)C4)c(C)n3)nnn2C)n1 [Example 258]	5.73
CCOc1ccnc(NCc2c(-c3cnc(O[C@H]4CCC[C@H](C(=O)O)C4)c(C)n3)nnn2C)n1 [Example 259]	6.88

SMILES	pIC50
C=CCCc1ccnc(NCc2c(-c3ccc(O[C@H]4CCC[C@H](C(=O)O)C4)c(C)n3)nnn2C)n1 [Example 260]	8.47
Cc1nc(-c2nnn(C)c2CNc2ccnc(OC3CC(F)(F)C3)n2)ccc1O[C@H]1CCC[C@H](C(=O)O)C1 [Example 261]	6.91
Cc1nc(-c2nnn(C)c2CNc2nccc(OC3CC(F)(F)C3)n2)ccc1O[C@H]1CCC[C@H](C(=O)O)C1 [Example 262]	7.30
CCCNc1nc(OCc2c(-c3ccc(O[C@H]4CCC[C@H](C(=O)O)C4)c(C)n3)nnn2C)ncc1F [Example 263]	7.02
CCNc1nc(OCc2c(-c3ccc(O[C@H]4CCC[C@H](C(=O)O)C4)c(C)n3)nnn2C)ncc1F [Example 264]	7.12
Cc1nc(-c2nnn(C)c2CNc2ncc(F)c(NCCOc3ccc(F)cc3)n2)ccc1O[C@H]1CCC[C@H](C(=O)O)C1 [Example 265]	7.36
Cc1nc(-c2nnn(C)c2CNc2cccc(C(C)C)n2)ccc1O[C@H]1CCC[C@H](C(=O)O)C1 [Example 266]	7.06
Cc1nc(-c2nnn(C)c2CNc2ccnc(C(C)C)n2)ccc1O[C@H]1CCC[C@H](C(=O)O)C1 [Example 267]	6.56
CCOc1cccc(OCc2c(-c3ccc(O[C@H]4CCC[C@H](C(=O)O)C4)c(C)n3)nnn2C)c1 [Example 268]	7.29
Cc1nc(-c2nnn(C)c2CN(C)c2nccc(OCC(C)F)n2)ccc1O[C@H]1CCC[C@H](C(=O)O)C1 (stereo partly shown) [Example 269]	7.35
CCOc1ccnc(OCc2c(-c3ccc(O[C@H]4CCC[C@H](C(=O)O)C4)c(C)n3)nnn2C)c1 [Example 270]	8.28
CCOc1ccnc(N(C)Cc2c(-c3ccc(O[C@H]4CCC[C@H](C(=O)O)C4)c(C)n3)nnn2C)n1 [Example 271]	7.80
CCOc1cc(NCc2c(-c3ccc(O[C@H]4CCC[C@H](C(=O)O)C4)c(C)n3)nnn2C)ncn1 [Example 272]	6.79
CCOc1cc(OCc2c(-c3ccc(O[C@H]4CCC[C@H](C(=O)O)C4)c(C)n3)nnn2C)ncn1 [Example 273]	7.89
Cc1nc(-c2nnn(C)c2COc2cc(OC3CC3)ncn2)ccc1O[C@H]1CCC[C@H](C(=O)O)C1 [Example 274]	7.59
